Experiments:
[1] = tested on: normal human epidermal keratinocytes (NHEKs); test: Fluorescent bead (pseudo-melanosome) phagocytosis enhanced by UVB irradiation; assay type: cell-based
Procedure: Test Example 1: Enhancement of Fluorescent Bead Phagocytosis by UVB Irradiation and Enhanced Phagocytosis-Inhibiting Effect by VB6 A culture medium (HuMedia-KG2: manufactured by Kurabo Industries Ltd.) was added to a 96-well plate at 0.1 mL/well, and normal human epidermal keratinocytes (NHEKs) were seeded at a density of 2.5×10^4 cells/well, followed by incubation for 24 hours. These cells were divided into first to fourth groups. In the first group (vitamin B6+UVB group), the medium was replaced by a pyridoxine-containing culture medium (pyridoxine: 1 mM), followed by culturing for 24 hours, and irradiation with 20 mJ/cm^2 of UVB using a UVB broadband lamp manufactured by Koninklijke Philips N.V. was performed, followed by culturing for 24 hours. In the second group (vitamin B6 group), the medium was replaced by a pyridoxine-containing culture medium (pyridoxine: 1 mM), followed by culturing for 24 hours. […] Subsequently, the NHEKs of each group were allowed to incorporate fluorescent beads (manufactured by Thermo Fisher Scientific Inc.) as pseudo-melanosomes for 4 hours, and the uptake amount of the fluorescent beads per unit protein was then measured with a microplate reader (manufactured by Tecan Group Ltd.).

[2] = tested on: gene expression levels of keratin-10, involucrin, and loricrin; test: Degradation of epidermal differentiation potency by fluorescent bead phagocytosis, real-time PCR; assay type: cell-based, human
Procedure: Test Example 3: Effect of Improving Degradation of Epidermal Differentiation Potency by Fluorescent Bead Phagocytosis A culture medium (HuMedia-KG2) was added to a 96-well plate at 0.1 mL/well, and normal human epidermal keratinocytes (NHEKs) were seeded at a density of 2.5×10^4 cells/well, followed by incubation for 24 hours. These cells were divided into first to third groups. In the first group (vitamin B6+bead group), the medium was replaced by a pyridoxine-containing culture medium (pyridoxine: 1 mM), followed by culturing for 24 hours. The NHEKs were allowed to incorporate fluorescent beads (manufactured by Thermo Fisher Scientific Inc.) as pseudo-melanosomes for 4 hours, followed by further culturing in a fresh culture medium (HuMedia-KG2) for 20 hours. In the second group (bead group), after culturing for 24 hours, the NHEKs were allowed to incorporate fluorescent beads (manufactured by Thermo Fisher Scientific Inc.) as pseudo-melanosomes for 4 hours, followed by further culturing in a fresh culture medium (HuMedia-KG2) for 20 hours. In the third group (control group), the NHEKs were directly cultured for 48 hours. Subsequently, total RNA was extracted from the NHEKs of each group, and cDNA was produced by reverse transcription. Real-time PCR was performed using this cDNA as a template to detect gene expression levels of keratin-10, involucrin, and loricrin.

[3] = tested on: normal human epidermal keratinocytes (NHEKs); test: Fluorescent bead phagocytosis enhanced by BSO treatment; assay type: cell-based; conditions: 50 μM BSO, pyridoxine 0.25 mM, 0.5 mM, or 1 mM, FIG. 2
Procedure: Test Example 2: Enhancement of Fluorescent Bead Phagocytosis by BSO Treatment and Enhanced Phagocytosis-Inhibiting Effect by VB6 A culture medium (HuMedia-KG2) was added to a 96-well plate at 0.1 mL/well, and normal human epidermal keratinocytes (NHEKs) were seeded at a density of 2.5×10^4 cells/well, followed by incubation for 24 hours. These cells were divided into first to fourth groups. In the first group (vitamin B6+BSO group), treatment with 50 μM of buthionine sulfoximine (BSO: manufactured by Sigma-Aldrich Co. LLC) was performed for 24 hours, and the medium was then replaced by a pyridoxine-containing culture medium (pyridoxine: 0.25 mM, 0.5 mM, or 1 mM), followed by culturing for 24 hours. In the second group (vitamin B6 group), the medium was replaced by a pyridoxine-containing culture medium (pyridoxine: 0.25 mM, 0.5 mM, or 1 mM), followed by culturing for 24 hours. In the third group (BSO group), treatment with 50 μM of buthionine sulfoximine (BSO) was performed for 24 hours, followed by culturing in a KG2 culture medium for 24 hours. […] Subsequently, the NHEKs of each group were allowed to incorporate fluorescent beads (manufactured by Thermo Fisher Scientific Inc.) for 4 hours, and the uptake amount of the fluorescent beads per unit protein was then measured with a microplate reader (manufactured by Tecan Group Ltd.).

Row | Compound | effect on increase in melanosome phagocytosis (uptake amount of fluorescent beads per unit protein) ([1]; NHEKs, pyridoxine 1 mM, 20 mJ/cm^2 UVB, FIG. 1) | effect on epidermal differentiation potency (gene expression of keratin-10, involucrin, loricrin) ([2]; NHEKs, pyridoxine 1 mM, fluorescent beads 4 hours, FIG. 3) | effect on increase in melanosome phagocytosis (uptake amount of fluorescent beads per unit protein) [3] | effect on increase in melanosome phagocytosis, summary statement on the Examples ([1]; general statement covering Test Examples 1 and 2) | effect on epidermal differentiation potency, summary statement on the Examples ([2]; general statement covering Test Example 3)
1 | Cc1ncc(CO)c(CO)c1O [pyridoxine] | inhibiting an increase in melanosome phagocytosis | improving epidermal differentiation potency | inhibiting an increase in melanosome phagocytosis | – | –
2 | vitamin B6 | – | – | – | excellent effects of inhibiting an increase in melanosome phagocytosis | improving epidermal differentiation potency

From patent US20230111066A1, “PIGMENTED SPOT FORMATION INHIBITOR, INCREASED MELANOSOME PHAGOCYTOSIS INHIBITOR, AND EPIDERMAL DIFFERENTIATION POTENCY IMPROVER” (SSP CO., LTD., priority 2021, published 2023)
